This is an account of results in PMC7893915, “Assessing cross-resistance within the pyrethroids in terms of their interactions with key cytochrome P450 enzymes and resistance in vector populations” (Parasites & Vectors, 2021).

Data set [1] has as its system CYP6M2, CYP6P3 and CYP6P9a. Kind of data set: Pyrethroid metabolism (insecticide depletion), across CYP6M2, CYP6P3 and CYP6P9a. The format is in vitro ADME, Anopheles gambiae and An. funestus. To be noted: mean ± SD across CYP6M2, CYP6P3, CYP6P9a. The text has this: (§1) In this study, the half maximal inhibitory concentration (IC50), which provides a value for inhibition of each P450 by each pyrethroid (also referred to as ‘binding affinity’), and the percentage depletion, which gives a value for metabolism of each pyrethroid by each P450 (also referred to as vulnerability to metabolic attack), were both included as parameters to establish a P450s structural activity relationship model. This model was used to understand both the chemistry of the pyrethroids and the interaction with mosquito P450s that function as monooxygenases in metabolic resistance, to predict cross-resistance liabilities in vivo. […] A low percentage depletion indicates low metabolism of the pyrethroid, which means that it may be less vulnerable to resistance mediated by P450s.
The values for percentage depletion (metabolism) of each pyrethroid by three of the enzymes CYP6M2, CYP6P3 and CYP6P9a, which were expressed in a single plasmid construct, were also extracted from the same sources and used for the comparative analysis.

For data set [2], the system named is An. funestus strain, FUMOZ-R. The arrangement: method as in PMID 26930058. To be noted: strain with upregulated P450 levels without any target-site mutations; ref [47]; cited from earlier work.
Another data set concerns CYP6M2. To be noted: Incubation time 2h; mean ± SD; ref [38], [41]; cited from earlier work.
Data set [3] has as its system CYP6P3. The following applies: Incubation time 2h; mean ± SD; ref [38], [41]; cited from earlier work.
The test system of data set [4] is CYP6P9a. The following applies: Incubation time 2h; mean ± SD; ref [38], [41]; cited from earlier work.
In the next data set the test system is Anopheles arabiensis. The following applies: F0, larval collection, Sudan, WHO Bioassay 1998, ref Abdalla H et al. Parasites Vectors. 2014;7:213, cited from earlier work.
In another data set the target is T1, CYP6Z3 (Anopheles gambiae, UniProt Q86LT6, H411Y/S209G/W396L).
T1 sequence (Q86LT6 1-492 S209G/W396L/H411Y): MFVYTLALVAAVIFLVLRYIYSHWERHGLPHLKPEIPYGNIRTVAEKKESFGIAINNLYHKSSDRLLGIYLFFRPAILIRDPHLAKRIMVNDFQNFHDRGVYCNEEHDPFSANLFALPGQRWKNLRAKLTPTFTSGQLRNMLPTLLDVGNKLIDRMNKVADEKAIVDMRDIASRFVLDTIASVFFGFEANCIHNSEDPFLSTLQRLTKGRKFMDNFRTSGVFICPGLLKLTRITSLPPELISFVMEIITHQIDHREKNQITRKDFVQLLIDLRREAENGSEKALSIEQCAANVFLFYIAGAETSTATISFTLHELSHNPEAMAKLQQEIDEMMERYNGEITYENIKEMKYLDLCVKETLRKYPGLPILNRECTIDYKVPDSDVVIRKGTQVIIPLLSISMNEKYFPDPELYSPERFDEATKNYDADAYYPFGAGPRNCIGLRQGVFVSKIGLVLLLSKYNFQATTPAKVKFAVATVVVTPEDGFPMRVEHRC
T1 sequence (Q86QH5 1-679 partner): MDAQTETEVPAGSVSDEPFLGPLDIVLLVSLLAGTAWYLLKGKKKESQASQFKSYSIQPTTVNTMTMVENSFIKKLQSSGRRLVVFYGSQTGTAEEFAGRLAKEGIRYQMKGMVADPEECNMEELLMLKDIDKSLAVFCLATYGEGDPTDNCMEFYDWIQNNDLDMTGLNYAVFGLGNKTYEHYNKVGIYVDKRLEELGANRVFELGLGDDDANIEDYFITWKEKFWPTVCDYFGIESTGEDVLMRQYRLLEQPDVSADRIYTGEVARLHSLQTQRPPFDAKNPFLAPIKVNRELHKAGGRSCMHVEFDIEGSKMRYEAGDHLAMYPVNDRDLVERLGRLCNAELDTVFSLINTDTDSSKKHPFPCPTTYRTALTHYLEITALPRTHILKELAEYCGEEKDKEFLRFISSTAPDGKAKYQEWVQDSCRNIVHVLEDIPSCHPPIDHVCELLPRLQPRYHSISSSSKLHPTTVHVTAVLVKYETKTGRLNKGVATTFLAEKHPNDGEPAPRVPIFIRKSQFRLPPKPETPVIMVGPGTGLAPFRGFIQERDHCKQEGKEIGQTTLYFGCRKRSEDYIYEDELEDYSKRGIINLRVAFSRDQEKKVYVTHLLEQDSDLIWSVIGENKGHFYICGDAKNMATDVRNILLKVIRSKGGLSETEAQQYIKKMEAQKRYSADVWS
The data set can be described thus: Inhibition screening of pyrethroids, diethoxyfluorescein, CYP6Z3. The data set is classed as biochemical.
Excerpt: as §1, with “Cytochrome P450 inhibition assays using fluorogenic probe substrates have become commonplace in drug discovery screening cascades and are a rapid method of screening for insecticide interactions with mosquito P450s to predict insecticide binding, metabolism, cross-resistance and synergism. In” for “In”
(§2) In addition, inhibition activity data for these pyrethroids exposed to CYP6Z3 from the An. gambiae Kisumu strain were also generated (Additional file 1).
1. Preparation of An. gambiae CYP6Z3 and cloning
Total RNA was extracted with Arcturus PicoPure Kit (Applied Biosystems, USA) from ten adult An. gambiae mosquitoes from the Kisumu strain [1]. Complementary DNA was prepared using Superscript III (Invitrogen) with an oligo (dT)20 primer and used as a template for amplifying full -length AgCyp6z3 with KOD DNA polymerase (Merk Chemicals) . The gene-specific primers used in these high -fidelity PCRs (Table S1) were designed according to the reference An. gambiae PEST CYP6Z3 genome sequence (Accession number AY193727) The PCR product was ligated into pGEM T-easy vector (Promega) and sequenced on both strands. Consistent with the high frequency of polymorphism in An. gambiae P450s [2](Martin Nature Ref) there were 36 single nucleotide polymorphism (SNPs) compared with the reference sequence, of which three produced amino acid changes, S209G, W396L, and H411Y. For expression, the ompA leader sequence (ompA) was engineered onto the amino - terminus of the AgCyp6z3 gene to direct the P450 into the E. coli […] during expression as previously described. The ompA-leader was fused to AgCyp6z3 cDNA in frame with AgCyp6z3 initiation codon by fusion PCR using High fidelity Phusion polymerase (Scientific). The ompA AgCyp6z3 fusion was flanked at the 5′ and 3′ ends with NdeI and EcoR1, respectively for ligation into NdeI/EcoRI linearised pB13 (pCWori+).
Table S1. Primers used for amplification of CYP6Z3 and in vitro functional characterisation […]
ompA+2 Forward […]
ompA+2 CYP6Z3 fusion […]
2. Preparation of membranes expressing P450 and AgCPR
To express functional P450, AgCyp6z3 cloned into pB13 plasmid was co-transformed into E. coli JM109 cells with An. gambiae NADPH-cytochrome P450 reductase (AgCPR-pACYC). The P450 and the AgCPR were previously fused with ompA and pelB leader sequences respectively to direct the expressed proteins to the inner bacterial periplasm in order to form functional monooxygenase complex. For P450 production, 200 mL E. coli cultures in Terrific Broth were incubated at 21°C with shaking at 120 RPM for 18–24 h after induction with 1 mM IPTG. Following expression, E. coli membranes containing CYP6Z3 were isolated and P450 and AgCPR content measured as previously described. Samples were stored in aliquots of 100 µL at −80°C. An. gambiae cytochrome b5 was prepared as described previously to supplement enzyme reactions at an 8:1 M ratio, b5: P450 [4].
3. Inhibition screening of pyrethroids.
Inhibition screening of pyrethroid inhibitors and IC50 calculations carried out according Yunta et al. […]

A further data set addresses T2, CYP6Z2 (Anopheles gambiae, UniProt Q7PNB5).
T2 sequence (Q7PNB5 1-492): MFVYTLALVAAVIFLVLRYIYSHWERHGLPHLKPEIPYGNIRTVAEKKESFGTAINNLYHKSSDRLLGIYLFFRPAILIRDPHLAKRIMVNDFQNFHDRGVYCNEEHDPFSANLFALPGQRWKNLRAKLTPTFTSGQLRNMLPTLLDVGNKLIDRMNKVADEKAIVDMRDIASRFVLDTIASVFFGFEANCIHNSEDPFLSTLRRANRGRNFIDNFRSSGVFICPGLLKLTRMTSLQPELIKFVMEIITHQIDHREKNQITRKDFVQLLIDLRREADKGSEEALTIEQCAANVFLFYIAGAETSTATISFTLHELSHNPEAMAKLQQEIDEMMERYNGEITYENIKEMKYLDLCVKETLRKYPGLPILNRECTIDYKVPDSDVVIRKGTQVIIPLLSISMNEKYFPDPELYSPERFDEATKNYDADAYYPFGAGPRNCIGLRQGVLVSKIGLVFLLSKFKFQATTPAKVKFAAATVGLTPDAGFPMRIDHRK
T2 sequence (Q86QH5 1-679 partner): T1 sequence (Q86QH5 1-679 partner)
The data set can be described thus: Inhibition screening of pyrethroids, diethoxyfluorescein, CYP6Z2. The format is biochemical.

The test system of data set [5] is P450 panel (CYP6M2, CYP6P3, CYP6P9a, CYP6P2, CYP9J5, CYP6Z3, CYP6Z2). Kind of data set: P450 inhibition, whole P450 panel (mean across P450s). The format is biochemical, Anopheles gambiae and An. funestus. The following applies: Anopheles gambiae and Anopheles funestus.
Excerpt: as §1, with “Cytochrome P450 inhibition assays using fluorogenic probe substrates have become commonplace in drug discovery screening cascades and are a rapid method of screening for insecticide interactions with mosquito P450s to predict insecticide binding, metabolism, cross-resistance and synergism. In” for “In”
as §2

Data set [6] concerns CYP6P3. The following applies: read-out: IC50 CYP6P3; inhibition of diethoxyfluorescein metabolism; footnote b; ref Yunta et al. 2019[10]; cited from earlier work.
The subject of data set [7] is CYP6P9a. To be noted: read-out: IC50 CYP6P9a; inhibition of diethoxyfluorescein metabolism; footnote b; ref Yunta et al. 2019[10]; cited from earlier work.
A further data set relates to CYP6P2. To be noted: read-out: IC50 CYP6P2; inhibition of diethoxyfluorescein metabolism; footnote b; ref Yunta et al. 2019[10]; cited from earlier work.
A further data set has as its system CYP9J5. To be noted: read-out: IC50 CYP9J5; inhibition of diethoxyfluorescein metabolism; footnote b; ref Yunta et al. 2019[10]; cited from earlier work.
Another data set concerns Gambiae Complex. To be noted: ID 100156; F0, larval collection, 5/2009-4/2010, Chano, Ethiopia; WHO Bioassay 1998; ref Massebo F et al. Parasites Vectors. 2013;6; cited from earlier work.

Where two headings read alike, the source gives them in different places.

As for `CC1(C)C(C=C(Cl)Cl)C1C(=O)OC(C#N)c1cccc(Oc2ccccc2)c1` (centres unmarked) [Cypermethrin], the “% Insecticide depletion Mean across P450s” value in data set [1] is 74.9 ± 33.3%. The “effectiveness with or without piperonyl butoxide (PBO), in words” value in data set [2] is given as “only effective when partnered with PBO”. Also, the “% Insecticide depletion CYP6M2” value in the data set on CYP6M2 was 36.8 ± 1.8%. Also, the “% Insecticide depletion CYP6P3” value in the data set with CYP6P3 [3] is 98.4 ± 0.1%. Besides, the “% Insecticide depletion CYP6P9a” value with CYP6P9a [4] is listed as 89.5 ± 2.7%.

Turning to `Clc1ccc(C(c2ccc(Cl)cc2)C(Cl)(Cl)Cl)cc1` [DDT, dichlorodiphenyltrichloroethane], the mortality is 93 in the data set on Anopheles arabiensis (10/2009-11/2009, El Managil); 58 in the data set on Anopheles arabiensis (10/2009-11/2009, Rufaa); 74 in the data set with Anopheles arabiensis (10/2009-11/2009, Wad El Hadad); 69 in the data set on Anopheles arabiensis (10/2010-11/2010, Wad El Hadad); 70 in the data set with Anopheles arabiensis (10/2010-11/2010, Wad Medani).

With `CNC(=O)Oc1cccc2c1OC(C)(C)O2` [bend, bendiocarb], the mortality is 100 in the data set with Anopheles arabiensis (10/2009-11/2009, El Managil); 100 in the data set with Anopheles arabiensis (10/2009-11/2009, Rufaa); 100 in the data set on Anopheles arabiensis (10/2009-11/2009, Wad El Hadad); 100 with Anopheles arabiensis (10/2010-11/2010, Wad El Hadad); 100 in the data set with Anopheles arabiensis (10/2010-11/2010, Wad Medani).

With `COP(=S)(OC)Oc1ccc([N+](=O)[O-])c(C)c1` [feni, fenitrothion], the mortality is listed as 100 in the data set with Anopheles arabiensis (10/2009-11/2009, El Managil); 100 in the data set with Anopheles arabiensis (10/2009-11/2009, Rufaa); 100 in the data set with Anopheles arabiensis (10/2009-11/2009, Wad El Hadad); 100 with Anopheles arabiensis (10/2010-11/2010, Wad El Hadad); 100 in the data set with Anopheles arabiensis (10/2010-11/2010, Wad Medani).

As for `CC1(C)C(C=C(Cl)Cl)C1C(=O)OC(C#N)c1ccc(F)c(Oc2ccccc2)c1` (centres unmarked) [ß-cyfluthrin], in [2], the “effectiveness with or without piperonyl butoxide (PBO), in words” value is “only effective when partnered with PBO”.

Consider `CC1(C)C(C=C(Cl)Cl)C1C(=O)OC(C#N)c1cccc(Oc2ccccc2)c1` (stereo not drawn) [⍺-cypermethrin, α-cypermethrin], for which the IC50 at CYP6Z3 is 4.4 µM; against CYP6Z2 it was 8.6 µM; in [5] it was 6.4 µM; in the data set on CYP6P3 [6], 2.6 µM; with CYP6P9a [7], 4.2 µM; in the data set with CYP6P2, 9.8 µM. Moreover, the IC50 with CYP9J5 is 13.5 µM. In the data set with Gambiae Complex, the mortality is recorded as 50.
